Assay results reported in ChEMBL document CHEMBL1126405, “Novel Biologically Active Taxol Analogues: Baccatin III 13-(N-(p-chlorobenzoyl)-(2R,3S)-3-phenylisoserinate) and Baccatin III 13-(N-benzoyl-(2R,3S)-3-(p-chlorophenyl)isoserinate)” (1992).

Tests used:
[1] = Effective dose required to promote microtubule assembly at 10 uM tubulin concentration; assay type: functional
[2] = test system: B16; assay: The compound was tested for cytotoxicity against B16 melanoma cells; assay type: functional; details: Mus musculus, read-out: ED50 (the source's name)

SMILES | ED50 [1] [nM] | EC50 [2] [nM]
CC(=O)O[C@H]1C(=O)[C@@]2(C)[C@H]([C@H](OC(=O)c3ccccc3)[C@]3(O)C[C@H](OC(=O)[C@H](O)[C@@H](NC(=O)c4ccccc4)c4ccccc4)C(C)=C1C3(C)C)[C@]1(OC(C)=O)CO[C@@H]1C[C@@H]2O [PACLITAXEL] | 700 | 28
CC(=O)O[C@H]1C(=O)[C@]2(C)[C@@H](O)CC3OC[C@@]3(OC(C)=O)[C@H]2[C@H](OC(=O)c2ccccc2)[C@]2(O)C[C@H](OC(=O)[C@H](O)[C@@H](NC(=O)c3ccc(Cl)cc3)c3ccccc3)C(C)=C1C2(C)C (stereo partly specified) | 1700 | 43
CC(=O)O[C@H]1C(=O)[C@@]2(C)[C@H]([C@H](OC(=O)c3ccccc3)[C@]3(O)C[C@H](OC(=O)[C@H](O)[C@@H](NC(=O)c4ccccc4)c4ccc(Cl)cc4)C(C)=C1C3(C)C)[C@]1(OC(C)=O)CO[C@@H]1C[C@@H]2O | 1300 | 61
